According to US20120010237A1, “COMPOUNDS HAVING ANTIPARASITIC OR ANTI-INFECTIOUS ACTIVITY” (The Government of the United States of America dba The …, priority 2008, published 2012):
Where “and” joins values, the source holds several entries; their conditions need not be identical. Equal entries are not always repeated. Where two headings read alike, the source gives them in different places.

Legend:
[1] = system: P. falciparum (D6, Dd2, Tm90.C2B); test: In vitro activity and pharmaco-resistance pattern against a panel of P. falciparum parasites; type: cell-based, Plasmodium falciparum; details: for reduction of potency relative to ELQ-121: in vitro, relative to the 5,7-difluoro parent ELQ-121; for cross-resistance / sensitivity pattern across strains: atovaquone-resistant Tm90.C2B compared with D6 and Dd2, in words; for antiplasmodial activity in vitro (in words): structure-activity comparison with endochin
Procedure: (§1) Plasmodium falciparum strains D6 and Dd2 were obtained from the MR4 (ATCC, Manassas, Va., USA). D6 is sensitive to chloroquine but mildly resistant to mefloquine while Dd2 is resistant to multiple quinoline and antifolate antimalarial agents. Tm90.C2B is resistant to atovaquone, chloroquine, mefloquine, and quinine.
(§2) Three different laboratory strains of P. falciparum were cultured in human erythrocytes by standard methods under a low oxygen atmosphere (5% O2, 5% CO2, 90% N2) in an environmental chamber as described in Trager, W., and J. B. Jensen. 1976. Human malaria parasites in continuous culture. Science 193:673-5. The culture medium was RPMI-1640, supplemented with 25 mM HEPES buffer, 25 mg/L gentamicin sulfate, 45 mg/L hypoxanthine, 10 mM glucose, 2 mM glutamine, and 0.5% Albumax II (complete medium). The parasites were maintained in fresh human erythrocytes suspended at a 2% hematocrit in complete medium at 37° C. Stock cultures were sub-passaged every 3 to 4 days by transfer of infected red cells to a flask containing complete medium and uninfected erythrocytes.
(§3) In vitro antimalarial activity of the compounds was assessed by the SYBR Green I fluorescence-based method (the “MSF assay”) described previously by Smilkstein, M., N. Sriwilaijaroen, J. X. Kelly, P. Wilairat, and M. Riscoe. 2004. Simple and inexpensive fluorescence-based technique for high-throughput antimalarial drug screening. Antimicrob Agents Chemother 48:1803-6 with minor modifications (Winter, R. W., J. X. Kelly, M. J. Smilkstein, R. Dodean, G. C. Bagby, R. K. Rathbun, J. I. Levin, D. Hinrichs, and M. K. Riscoe. 2006. Evaluation and lead optimization of anti-malarial acridones. Exp Parasitol 114:47-56). Experiments were set up in triplicate in 96 well plates (Costar, Corning) with two-fold dilutions of each drug across the plate in a total volume of 100 microliters and at a final red blood cell concentration of 2% (v/v). Stock solutions of each drug were prepared by dissolving in ethanol or dimethylsulfoxide (as appropriate) at 10 mM. […] Automated pipeting and dilution was carried out with the aid of a programmable Precision 2000 robotic station (BioTek, Winooski, Vt.). An initial parasitemia of 0.2% was attained by addition of normal uninfected red cells to a stock culture of asynchronous parasite infected red cells (PRBC). The plates were incubated for 72 hrs at 37° C. in an atmosphere of 5% CO2, 5% O2, and 90% N2. After this period the SYBR Green I dye-detergent mixture (100 μl) was added and the plates were incubated at room temperature for an hour in the dark and then placed in a 96-well fluorescence plate reader (Spectramax Gemini-EM, […]) for analysis with excitation and emission wavelength bands centered at 497 and 520 nm, respectively.
(§4) The compounds were screened for antiplasmodial activity in vitro against chloroquine (CQ) sensitive (D6), multidrug resistant (Dd2), and chloroquine/quinine/atovaquone (ATV)-resistant (Tm90.C2B) strains of P. falciparum.

[2] = system: Plasmodium falciparum strain D6; test: SYBR Green I fluorescence-based MSF assay, in vitro antimalarial activity, strain D6; type: cell-based; details: chloroquine sensitive strain D6, 72 hrs incubation
Procedure: as §1, §2, §3, §4

[3] = system: Plasmodium falciparum strain Tm90.C2B; type: cell-based
Procedure: as §1, §2
In vitro antimalarial activity of the compounds was assessed by the SYBR Green I fluorescence-based method (the “MSF assay”) described previously by Smilkstein, M., N. Sriwilaijaroen, J. X. Kelly, P. Wilairat, and M. Riscoe. 2004. Simple and inexpensive fluorescence-based technique for high-throughput antimalarial drug screening. Antimicrob Agents Chemother 48:1803-6 with minor modifications (Winter, R. W., J. X. Kelly, M. J. Smilkstein, R. Dodean, G. C. Bagby, R. K. Rathbun, J. I. Levin, D. Hinrichs, and M. K. Riscoe. 2006. Evaluation and lead optimization of anti-malarial acridones. Exp Parasitol 114:47-56). […] After this period the SYBR Green I dye-detergent mixture (100 μl) was added and the plates were incubated at room temperature for an hour in the dark and then placed in a 96-well fluorescence plate reader (Spectramax Gemini-EM, […]) for analysis with excitation and emission wavelength bands centered at 497 and 520 nm, respectively. […]

P. cathemerium = details: P. cathemerium/canary; cited from earlier work
P. gallinaceum = P. gallinaceum in the chick; cited from earlier work
P. lophurae = P. lophurae in the turkey; cited from earlier work
Haemoproteus = details: male gametocytes undergoing exflagellation, finches infected with Haemoproteus; cited from earlier work
malaria infections = details: mice to non-human primates (Rhesus monkeys); cited from earlier work
[4] = system: Plasmodium falciparum strain Dd2; test: SYBR Green I fluorescence-based MSF assay, in vitro antimalarial activity, strain Dd2; type: cell-based; details: multidrug resistant strain Dd2, 72 hrs incubation
Procedure: as §1
Three different laboratory strains of P. falciparum were cultured in human erythrocytes by standard methods under a low oxygen atmosphere (5% O2, 5% CO2, 90% N2) in an environmental chamber as described in Trager, W., and J. B. Jensen. 1976. Human malaria parasites in continuous culture. Science 193:673-5. […]
In vitro antimalarial activity of the compounds was assessed by the SYBR Green I fluorescence-based method (the “MSF assay”) described previously by Smilkstein, M., N. Sriwilaijaroen, J. X. Kelly, P. Wilairat, and M. Riscoe. […] Simple and inexpensive fluorescence-based technique for high-throughput antimalarial drug screening. […] After this period the SYBR Green I dye-detergent mixture (100 μl) was added and the plates were incubated at room temperature for an hour in the dark and then placed in a 96-well fluorescence plate reader (Spectramax Gemini-EM, […]) for analysis with excitation and emission wavelength bands centered at 497 and 520 nm, respectively. […]

P. yoelii = type: in vivo
Procedure: The activity of the ester, ELQ-125, against the blood stages was assessed using a modified Thompson procedure (Arba Ager, 1984). Rodent malaria models, vol. 68/1. Springer-Verlag, Berlin. Mice (female, CFI) were infected intravenously with 1-5 million P. yoelii parasitized erythrocytes from a donor animal. Drug administration was initiated once the parasitemia had risen to between 3 to 5% as determined microscopically by examination of Giemsa-stained blood smears. The test compound, ELQ-125, was taken into NeoBee® M-5 (Stephan Company, Northfield, Ill., USA) and used without dilution. The drug was administered by gavage once daily for 3 days. On the 4th day blood films were prepared and the extent of parasitemia was determined microscopically. ED50 and ED90 values (mg/kg/day) were derived from the dose required to reduce the parasite burden by 50% and 90%, respectively, relative to drug-free controls. The procedures involved, together with all matters relating to the care and housing of the animals used in this study, were approved by the Portland VA Medical Center Institutional Animal Care and Use Committee (approval #0807).
Prodrugs containing a water-soluble pro-moiety that could be metabolically released after drug administration were designed and synthesized. […] In each case, ELQ-125, a clear and colorless syrup, was administered orally with NeoBee M-5 (vol.=100 μl).

[5] = system: Toxoplasma gondii strain 2F; test: Anti-T. gondii assay with beta-galactosidase expressing 2F strain in HFF cells; type: cell-based; details: compared with the correlation observed for Plasmodium falciparum
Procedure: Determination of anti-T. gondii IC50 and TD50 values—use of the 2F strain. This method, which employs tachyzoites of Toxoplasma gondii strain 2F that constitutively expresses cytoplasmic Beta-galactosidase, has been described recently by Jones-Brando et al. (Jones-Brando, L., D'angelo, J., Posner, G H, and Yolken, R., 2006, In vitro inhibition of Toxoplasma gondii by four new derivatives of artemisinin, Antimicrobial Agents and Chemotherapy 50: 4206-8). […] Briefly, each drug was dissolved in ethanol or DMSO, as appropriate, at a concentration of 10 mM and diluted with complete Dulbecco's modified Eagle's medium (DMEM) to 1,000 μM. […] After this period, Triton X-100 is added to inactivate the parasite and the color reactions in the wells were read in a microplate reader. For anti-T. gondii IC50 determinations, the plates are read at 570-650 nm. The amount of absorbance (570-650 nm) in wells containing drug, parasites, and CPRG reagent is compared to that in control wells containing T. gondii, HFF cells and CPRG. The amount of absorbance in these wells is directly proportional to the amount of beta-galactosidase activity and thus correlative to the number of viable tachyzoites in each well. Thus, a decrease in the amount of absorbance indicates an inhibition of parasite growth. […]

[6] = chloroquine/quinine/atovaquone-resistant Tm90.C2B clinical isolate, 72 hrs incubation

CCCCCCCc1c(C)[nH]c2c(F)cc(F)cc2c1=O [6,8-difluoro positional isomer]
reduction of potency relative to ELQ-121 [1]: ≈ 2,000 fold

CCCCCCCc1c(C)[nH]c2cc(OC)ccc2c1=O [ELQ-100, endochin]
IC50 [2]: 3 to 4 nM and 3.8 nM
IC50 [3, 6]: 11.4 nM
cross-resistance / sensitivity pattern across strains [1]: a modest level of ATV cross-resistance
efficacy in bird model (P. cathemerium): efficacy in treatment and prevention of malaria
efficacy in treatment and prophylaxis (P. gallinaceum): demonstrated efficacy in treatment and prophylaxis
efficacy in treatment and prophylaxis (P. lophurae): demonstrated efficacy in treatment and prophylaxis
gametocidal action (Haemoproteus): exerted gametocidal action
cure of malaria infections in mammalian species (malaria infections): failed to cure malaria infections

COc1ccc2c(=O)c(CCCCCCCCCCC(F)(F)F)c(C)[nH]c2c1 [ELQ-103]
IC50 vs. D6 [2]: low nanomolar range
IC50 vs. Dd2 [4]: low nanomolar range
IC50 vs. Tm90.C2B [3, 6]: low nanomolar range

CCCCCCCc1c(O)[nH]c2cc(OC)ccc2c1=O [ELQ-106]
IC50 [2]: > 2500 nM

CCCCCCCc1c(C)[nH]c2cc(Cl)ccc2c1=O [ELQ-109]
IC50 [2]: 5.8 nM
antiplasmodial activity in vitro (in words) [1]: only a modest reduction in in vitro potency

CCCCCCCc1c(C)[nH]c2cc(O)ccc2c1=O [ELQ-117]
antiplasmodial activity in vitro (in words) [1]: greatly diminishes antiplasmodial activity

CCCCCCCc1c(C)nc2cc(F)cc(F)c2c1Cl [ELQ-119]
reduction of potency relative to ELQ-121 [1]: > 1,000 fold

CCCCCCCc1c(C)[nH]c2cc(F)ccc2c1=O [ELQ-120]
antiplasmodial activity in vitro (in words) [1]: only a modest reduction in in vitro potency

CCCCCCCc1c(C)[nH]c2cc(F)cc(F)c2c1=O [ELQ-121, 2-Methyl-3-(n-heptyl)-5.7-difluorquinolone]
IC50 [2]: ~0.05 nM
IC50 [4]: ~0.05 nM
IC50 against Tm90.C2B relative to D6 and Dd2 ([3]; times higher than IC50 against D6 and Dd2): about 300 times

CCCCCCCc1c(C)[nH]c2cc(Cl)cc(Cl)c2c1=O [ELQ-124]
antiplasmodial activity in vitro (in words) [1]: weak in vitro activity

CCCCCCCc1c(C)nc2cc(F)cc(F)c2c1OC(=O)OCCOCCOCCOCCOC [ELQ-125]
parasitemia suppressed relative to controls (P. yoelii; 25 mg/kg/day oral, 3 days, assessed on the day following the last dose): > 99%
parasite status during follow-up (P. yoelii; 25 mg/kg/day oral, 3 days, until euthanized 10 days later): remained parasite-free
clearance of parasites from the bloodstream (P. yoelii; 50 mg/kg/day oral in NeoBee M-5, once daily for 3 days, mice): completely cleared parasites from the bloodstream
clearance of parasites from the bloodstream (P. yoelii; 100 mg/kg/day oral in NeoBee M-5, once daily for 3 days, mice): completely cleared parasites from the bloodstream
ED90 (P. yoelii; oral in 100 μl NeoBee M5, once daily for 3 days, mice): 22 mg/kg/day
in vivo efficacy of the prodrug (in words) (P. yoelii; prodrug ester compared with ELQ-121): greatly enhanced in vivo efficacy

CCCCCCCc1c(C)[nH]c2ccccc2c1=O [ELQ-127]
cross-resistance / sensitivity pattern across strains [1]: equally active against all three parasite strains
in vitro activity weakened relative to endochin ([1]; relative to endochin): roughly 5 fold

CCCCCCCc1c(C)[nH]c2ccc(Cl)cc2c1=O [ELQ-130]
IC50 [2]: 22.2 nM
cross-resistance / sensitivity pattern across strains [1]: equal sensitivity is observed against the atovaquone-resistant Tm90.C2B clinical isolate

CCCCCCCc1c(C)n(C)c2cc(F)cc(F)c2c1=O [ELQ-134]
reduction of potency relative to ELQ-121 [1]: about 300 fold
growth inhibitory activity against Toxoplasma gondii (in words) [5]: enhanced growth inhibitory activity
